Test results published in patent US20230098254A1, “SCUTELLARIAE RADIX COMPOUNDS AND USE THEREOF FOR INHIBITING OXIDATIVE PHOSPHORYLATION PATHWAY OF MITOCHONDRIA” (priority 2020, published 2023).
pIC50: −log10 of the molar value.

Experiments:
[1] = system: A-375; assay: Cell viability CellTiter-Glo, A-375; format: cell-based; conditions: Homo sapiens; A-375, melanoma
Experimental: (§1) Cell viability was measured by using the Promega CellTiter-Glo kit, the kit reflected cell viability by directly measuring intracellular ATP content. Different cancer cells were cultured in culture medium, and the 50% inhibitory concentration IC50 of the compound SJ2858 was measured by Promega CellTiter-Glo kit. The name source and culture condition of each tumor cell line were as follows:
Cell line A-375 (ATCC, No. CRL-1619) was cultured in DMEM medium containing 10% fetal bovine serum (+P/S);

[2] = system: ATN-1; assay: Cell viability CellTiter-Glo, ATN-1; format: cell-based; conditions: Homo sapiens; ATN-1, leukemia
Experimental: as §1
Cell line ATN-1 (RIKEN, No. RBRC-RCB1440) was cultured in RPMI1640 medium containing 10% fetal bovine serum and 0.1 mM NEAA (+P/S);

O=c1cc(-c2ccccc2)oc2cc(O)c(O)c(O)c12 [Compound SJ2858, baicalein] was tested. Which pIC50 [1] did it give?
The pIC50 was 4.97.

What about the pIC50 [2] of the same molecule?
Its pIC50 is 4.60.
